The values that follow are results of earlier work, collected in patent publication US20240082222A1, “4-CHLORO-N-[2-[(4-CHLOROPHENYL)METHYL]-3-OXO-1,2,4-THIADIAZOL-5-YL]BENZAMIDE FOR USE IN MEDICINE” (Betagenon AB, priority 2021, published 2024).

For data set [1] the following is noted: mice, lumbar disc puncture and postoperative pain models; cited from earlier work.
For data set [2] the following is noted: 1000 mg/day in suspension, day 28, patients with type-2 diabetes; cited from earlier work.

As for `CN(C)C(=N)N=C(N)N` [metformin, reference compound], the “treatment of pain (mechanical hypersensitivity)” value in data set [1] was “effective at treating pain”.

As to `O=C(Nc1nc(=O)n(Cc2ccc(Cl)cc2)s1)c1ccc(Cl)cc1` [compound of formula I, 4-chloro-N-[2-[(4-chlorophenyl)methyl]-3-oxo-1,2,4-thiadiazol-5-yl]benzamide], in data set [2], the “mean Cmax” value was 55 µg/mL. Besides, in data set [1], the “treatment of pain (mechanical hypersensitivity)” value is “effective at treating pain”.
